Assay results from PubChem BioAssay (NCI).
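Assay format: 96-well plates, 48-hour exposure. GI50 is the concentration that inhibits growth by half. TGI marks complete inhibition of growth.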

Tests used:
Experiment in all cases: growth of human tumour cells (NCI), 48 h
SR leukemia = tested on: SR leukemia
SF-268 CNS = tested on: SF-268 CNS
HCT-15 colon = tested on: HCT-15 colon
HL-60(TB) leukemia = tested on: HL-60(TB) leukemia
HOP-92 NSCLC = tested on: HOP-92 NSCLC
UACC-257 melanoma = tested on: UACC-257 melanoma
DU-145 prostate = tested on: DU-145 prostate
RXF 393 renal = tested on: RXF 393 renal
HCC-2998 colon = tested on: HCC-2998 colon
MCF7 breast = tested on: MCF7 breast
MDA-MB-231 breast = tested on: MDA-MB-231 breast
OVCAR-3 ovarian = tested on: OVCAR-3 ovarian
U251 CNS = tested on: U251 CNS
SK-MEL-2 melanoma = tested on: SK-MEL-2 melanoma
COLO 205 colon = tested on: COLO 205 colon
ACHN renal = tested on: ACHN renal
SN12C renal = tested on: SN12C renal
NCI-H23 lung = tested on: NCI-H23 lung
KM12 colon = tested on: KM12 colon
T-47D breast = tested on: T-47D breast
SK-OV-3 ovarian = tested on: SK-OV-3 ovarian
OVCAR-8 ovarian = tested on: OVCAR-8 ovarian
BT-549 breast = tested on: BT-549 breast
HCT-116 colon = tested on: HCT-116 colon
NCI/ADR-RES ovarian = tested on: NCI/ADR-RES ovarian
PC-3 prostate = tested on: PC-3 prostate
OVCAR-5 ovarian = tested on: OVCAR-5 ovarian
OVCAR-4 ovarian = tested on: OVCAR-4 ovarian
SF-295 CNS = tested on: SF-295 CNS
UO-31 renal = tested on: UO-31 renal
LOX IMVI melanoma = tested on: LOX IMVI melanoma
SW-620 colon = tested on: SW-620 colon
RPMI-8226 leukemia = tested on: RPMI-8226 leukemia
SNB-75 CNS = tested on: SNB-75 CNS
TK-10 renal = tested on: TK-10 renal
CAKI-1 renal = tested on: CAKI-1 renal
SF-539 CNS = tested on: SF-539 CNS
K-562 leukemia = tested on: K-562 leukemia
A549 NSCLC = tested on: A549 NSCLC
NCI-H522 lung = tested on: NCI-H522 lung
NCI-H460 lung = tested on: NCI-H460 lung
SNB-19 CNS = tested on: SNB-19 CNS
IGROV1 ovarian = tested on: IGROV1 ovarian
NCI-H226 lung = tested on: NCI-H226 lung
SK-MEL-5 melanoma = tested on: SK-MEL-5 melanoma
786-0 renal = tested on: 786-0 renal
MDA-MB-435 = tested on: MDA-MB-435
HT29 colon = tested on: HT29 colon
A498 renal = tested on: A498 renal
UACC-62 melanoma = tested on: UACC-62 melanoma
MALME-3M melanoma = tested on: MALME-3M melanoma
MOLT-4 leukemia = tested on: MOLT-4 leukemia
CCRF-CEM leukemia = tested on: CCRF-CEM leukemia
HOP-62 NSCLC = tested on: HOP-62 NSCLC
SK-MEL-28 melanoma = tested on: SK-MEL-28 melanoma

Work on `CCn1nc(-c2ccc(C(=O)OC)cc2)nc2c(=O)n(C)c(=O)nc1-2` yielded a GI50 (SR leukemia) of 744 nM, a TGI (SR leukemia) of 12100 nM and a GI50 (SF-268 CNS) of 1120 nM. The TGI (SF-268 CNS) was 3060 nM, the GI50 (HCT-15 colon) was 371 nM and the TGI (HCT-15 colon) was 1610 nM. The GI50 (HL-60(TB) leukemia) was 319 nM, the TGI (HL-60(TB) leukemia) was 1150 nM and the GI50 (HOP-92 NSCLC) was 1720 nM. It also gave a TGI (HOP-92 NSCLC) of 3390 nM, a GI50 (UACC-257 melanoma) of 306 nM and a TGI (UACC-257 melanoma) of 1080 nM. For the same compound, the GI50 (DU-145 prostate) was 1110 nM, the TGI (DU-145 prostate) was 2320 nM and the GI50 (RXF 393 renal) was 1570 nM. The TGI (RXF 393 renal) was 3260 nM, the GI50 (HCC-2998 colon) was 763 nM and the TGI (HCC-2998 colon) was 2240 nM. It also gave a GI50 (MCF7 breast) of 148 nM, a TGI (MCF7 breast) of 372 nM and a GI50 (MDA-MB-231 breast) of 461 nM. The TGI (MDA-MB-231 breast) was 6330 nM, the GI50 (OVCAR-3 ovarian) was 181 nM and the TGI (OVCAR-3 ovarian) was 566 nM. The GI50 (U251 CNS) was 360 nM, the TGI (U251 CNS) was 1380 nM and the GI50 (SK-MEL-2 melanoma) was 524 nM. For the same compound, the TGI (SK-MEL-2 melanoma) was 2040 nM, the GI50 (COLO 205 colon) was 211 nM and the TGI (COLO 205 colon) was 643 nM. The GI50 (ACHN renal) was 1080 nM, the TGI (ACHN renal) was 2260 nM and the GI50 (SN12C renal) was 193 nM. It also gave a TGI (SN12C renal) of 411 nM, a GI50 (NCI-H23 lung) of 1220 nM and a TGI (NCI-H23 lung) of 3160 nM. It also gave a GI50 (KM12 colon) of 421 nM, a TGI (KM12 colon) of 2230 nM and a GI50 (T-47D breast) of 332 nM. For the same compound, the TGI (T-47D breast) was 1420 nM, the GI50 (SK-OV-3 ovarian) was 1450 nM and the TGI (SK-OV-3 ovarian) was 2750 nM. The GI50 (OVCAR-8 ovarian) was 368 nM, the TGI (OVCAR-8 ovarian) was 1450 nM and the GI50 (BT-549 breast) was 1550 nM. The TGI (BT-549 breast) was 2990 nM, the GI50 (HCT-116 colon) was 283 nM and the TGI (HCT-116 colon) was 1010 nM. It also gave a GI50 (NCI/ADR-RES ovarian) of 484 nM, a TGI (NCI/ADR-RES ovarian) of 2420 nM and a GI50 (PC-3 prostate) of 347 nM. It also gave a TGI (PC-3 prostate) of 8220 nM, a GI50 (OVCAR-5 ovarian) of 460 nM and a TGI (OVCAR-5 ovarian) of 1770 nM. It also gave a GI50 (OVCAR-4 ovarian) of 479 nM, a TGI (OVCAR-4 ovarian) of 1880 nM and a GI50 (SF-295 CNS) of 637 nM. The TGI (SF-295 CNS) was 1980 nM, the GI50 (UO-31 renal) was 1080 nM and the TGI (UO-31 renal) was 2280 nM. The GI50 (LOX IMVI melanoma) was 375 nM, the TGI (LOX IMVI melanoma) was 1500 nM and the GI50 (SW-620 colon) was 676 nM. For the same compound, the TGI (SW-620 colon) was 2180 nM, the GI50 (RPMI-8226 leukemia) was 340 nM and the TGI (RPMI-8226 leukemia) was 1760 nM. The GI50 (SNB-75 CNS) was 1190 nM, the TGI (SNB-75 CNS) was 2420 nM and the GI50 (TK-10 renal) was 3110 nM. The TGI (TK-10 renal) was 6740 nM, the GI50 (CAKI-1 renal) was 1220 nM and the TGI (CAKI-1 renal) was 2460 nM. It also gave a GI50 (SF-539 CNS) of 359 nM, a TGI (SF-539 CNS) of 1550 nM and a GI50 (K-562 leukemia) of 251 nM. For the same compound, the TGI (K-562 leukemia) was 1090 nM, the GI50 (A549 NSCLC) was 413 nM and the TGI (A549 NSCLC) was 1720 nM. The GI50 (NCI-H522 lung) was 484 nM, the TGI (NCI-H522 lung) was 1990 nM and the GI50 (NCI-H460 lung) was 488 nM. It also gave a TGI (NCI-H460 lung) of 3270 nM, a GI50 (SNB-19 CNS) of 1110 nM and a TGI (SNB-19 CNS) of 2370 nM. The GI50 (IGROV1 ovarian) was 1080 nM, the TGI (IGROV1 ovarian) was 2450 nM and the GI50 (NCI-H226 lung) was 1360 nM. The TGI (NCI-H226 lung) was 2690 nM, the GI50 (SK-MEL-5 melanoma) was 128 nM and the TGI (SK-MEL-5 melanoma) was 260 nM. For the same compound, the GI50 (786-0 renal) was 1320 nM, the TGI (786-0 renal) was 3310 nM and the GI50 (MDA-MB-435) was 162 nM. It also gave a TGI (MDA-MB-435) of 310 nM, a GI50 (HT29 colon) of 266 nM and a TGI (HT29 colon) of 2400 nM. It also gave a GI50 (A498 renal) of 166 nM, a TGI (A498 renal) of 988 nM and a GI50 (UACC-62 melanoma) of 216 nM. The TGI (UACC-62 melanoma) was 594 nM, the GI50 (MALME-3M melanoma) was 216 nM and the TGI (MALME-3M melanoma) was 836 nM. For the same compound, the GI50 (MOLT-4 leukemia) was 393 nM, the TGI (MOLT-4 leukemia) was 2410 nM and the GI50 (CCRF-CEM leukemia) was 566 nM. For the same compound, the TGI (CCRF-CEM leukemia) was 11300 nM, the GI50 (HOP-62 NSCLC) was 1070 nM and the TGI (HOP-62 NSCLC) was 2580 nM. It also gave a GI50 (SK-MEL-28 melanoma) of 1380 nM and a TGI (SK-MEL-28 melanoma) of 2880 nM.
